Laboratory results as given in ChEMBL document CHEMBL1122513, “Synthesis and antiviral activity of carbocyclic analogues of 2'-deoxyribofuranosides of 2-amino-6-substituted-purines and of 2-amino-6-substituted-8-azapurines” (J Med Chem, 1984).
Converted amounts (≈) assume the structure as drawn.

Test system: Vaccinia virus
Experiment: Concentration required to inhibit vaccinia virus induced cytopathogenic affects by 50%
Assay type: functional, Orthopoxvirus vaccinia
[1] = Orthopoxvirus vaccinia, read-out: MIC50

Row | SMILES | MIC50 [µg/mL] | MIC50 [1] [µg/mL]
1 | Nc1ncnc2c1ncn2[C@@H]1C[C@H](CO)[C@@H](O)[C@@H]1O | 9 (≈ 33.9 µM) | 9 (≈ 33.9 µM)
2 | OCC1CC(n2nnc3c(O)ncnc32)C(O)C1O (stereo not given) |  | 467 (≈ 1750 µM)
3 | Nc1ccn([C@@H]2C[C@H](CO)[C@@H](O)[C@H]2O)c(=O)n1 (stereo in doubt; form 2) |  | 57 (≈ 236 µM)
4 | OCC1CC(n2cnc3c(O)ncnc32)C(O)C1O (stereo not given) |  | 191 (≈ 717 µM)
